Measured values: ChEMBL document CHEMBL1772973, “Design, synthesis, radiolabeling, and in vitro and in vivo evaluation of bridgehead iodinated analogues of N-{2-[4-(2-methoxyphenyl)piperazin-1-yl]ethyl}-N-(pyridin-2-yl)cyclohexanecarboxamide (WAY-100635) as potential SPECT ligands for the 5-HT1A receptor” (J Med Chem, 2011)

Assays:
Format in all cases: ADME, organism-based
[1] = system: Heart; assay: Biodistribution in Wistar rat heart at 7 MBq, iv after 15 mins; conditions: in vivo, 0.25 h
[2] = system: Lung; assay: Biodistribution in Wistar rat lung at 7 MBq, iv after 15 mins; conditions: in vivo, 0.25 h
[3] = system: Striatum; assay: Biodistribution in Wistar rat striatum at 7 MBq, iv after 15 mins; conditions: in vivo, 0.25 h
[4] = system: Cerebellum; assay: Biodistribution in Wistar rat cerebellum at 7 MBq, iv after 15 mins; conditions: in vivo, 0.25 h
[5] = system: Striatum; assay: Biodistribution in Wistar rat striatum at 7 MBq, iv after 45 mins; conditions: in vivo, 0.75 h
[6] = system: Nucleic Acid; assay: Ratio of drug level in cerebellum to occipital cortex in Wistar rat at 7 MBq, iv after 45 mins; conditions: in vivo, 0.75 h
[7] = system: Rattus norvegicus; assay: Biodistribution in Wistar rat rest cortex at 7 MBq, iv after 45 mins; conditions: in vivo, 0.75 h
[8] = system: Heart; assay: Biodistribution in Wistar rat heart at 7 MBq, iv after 45 mins; conditions: in vivo, 0.75 h
[9] = system: Lung; assay: Biodistribution in Wistar rat lung at 7 MBq, iv after 45 mins; conditions: in vivo, 0.75 h
[10] = system: Occipital cortex; assay: Biodistribution in Wistar rat occipital cortex at 7 MBq, iv after 45 mins; conditions: in vivo, 0.75 h
[11] = system: Nucleic Acid; assay: Ratio of drug level in cerebellum to striatum in Wistar rat at 7 MBq, iv after 45 mins; conditions: in vivo, 0.75 h
[12] = system: Heart; assay: Biodistribution in Wistar rat heart at 7 MBq, iv after 120 mins; conditions: in vivo, 2 h
[13] = system: Rattus norvegicus; assay: Biodistribution in Wistar rat rest cortex at 7 MBq, iv after 15 mins; conditions: in vivo, 0.25 h
[14] = system: Nucleic Acid; assay: Ratio of drug level in cerebellum to hippocampus in Wistar rat at 7 MBq, iv after 45 mins; conditions: in vivo, 0.75 h
[15] = system: Rattus norvegicus; assay: Biodistribution in Wistar rat frontal cortex at 7 MBq, iv after 15 mins; conditions: in vivo, 0.25 h
[16] = system: Cerebellum; assay: Biodistribution in Wistar rat cerebellum at 7 MBq, iv after 45 mins; conditions: in vivo, 0.75 h
[17] = system: Rattus norvegicus; assay: Biodistribution in Wistar rat frontal cortex at 7 MBq, iv after 120 mins; conditions: in vivo, 2 h
[18] = system: Kidney; assay: Biodistribution in Wistar rat kidney at 7 MBq, iv after 120 mins; conditions: in vivo, 2 h
[19] = system: Blood; assay: Biodistribution in Wistar rat blood at 7 MBq, iv after 120 mins; conditions: in vivo, 2 h
[20] = system: Hippocampus; assay: Biodistribution in Wistar rat hippocampus at 7 MBq, iv after 15 mins; conditions: in vivo, 0.25 h
[21] = system: Liver; assay: Biodistribution in Wistar rat liver at 7 MBq, iv after 45 mins; conditions: in vivo, 0.75 h
[22] = system: Rattus norvegicus; assay: Biodistribution in Wistar rat rest cortex at 7 MBq, iv after 120 mins; conditions: in vivo, 2 h
[23] = system: Thyroid gland; assay: Biodistribution in Wistar rat thyroid assessed per organ at 7 MBq, iv after 15 mins; conditions: in vivo, 0.25 h
[24] = system: Lung; assay: Biodistribution in Wistar rat lung at 7 MBq, iv after 120 mins; conditions: in vivo, 2 h
[25] = system: Blood; assay: Biodistribution in Wistar rat blood at 7 MBq, iv after 45 mins; conditions: in vivo, 0.75 h
[26] = system: Striatum; assay: Biodistribution in Wistar rat striatum at 7 MBq, iv after 120 mins; conditions: in vivo, 2 h
[27] = system: Thyroid gland; assay: Biodistribution in Wistar rat thyroid assessed per organ at 7 MBq, iv after 120 mins; conditions: in vivo, 2 h
[28] = system: Liver; assay: Biodistribution in Wistar rat liver at 7 MBq, iv after 120 mins; conditions: in vivo, 2 h
[29] = system: Occipital cortex; assay: Biodistribution in Wistar rat occipital cortex at 7 MBq, iv after 120 mins; conditions: in vivo, 2 h
[30] = system: Liver; assay: Biodistribution in Wistar rat liver at 7 MBq, iv after 15 mins; conditions: in vivo, 0.25 h
[31] = system: Cerebellum; assay: Biodistribution in Wistar rat cerebellum at 7 MBq, iv after 120 mins; conditions: in vivo, 2 h
[32] = system: Nucleic Acid; assay: Ratio of drug level in cerebellum to frontal cortex in Wistar rat at 7 MBq, iv after 45 mins; conditions: in vivo, 0.75 h
[33] = system: Hippocampus; assay: Biodistribution in Wistar rat hippocampus at 7 MBq, iv after 120 mins; conditions: in vivo, 2 h
[34] = system: Kidney; assay: Biodistribution in Wistar rat kidney at 7 MBq, iv after 45 mins; conditions: in vivo, 0.75 h
[35] = system: Hippocampus; assay: Biodistribution in Wistar rat hippocampus at 7 MBq, iv after 45 mins; conditions: in vivo, 0.75 h
[36] = system: Occipital cortex; assay: Biodistribution in Wistar rat occipital cortex at 7 MBq, iv after 15 mins; conditions: in vivo, 0.25 h
[37] = system: Blood; assay: Biodistribution in Wistar rat blood at 7 MBq, iv after 15 mins; conditions: in vivo, 0.25 h
[38] = system: Kidney; assay: Biodistribution in Wistar rat kidney at 7 MBq, iv after 15 mins; conditions: in vivo, 0.25 h
[39] = system: Rattus norvegicus; assay: Biodistribution in Wistar rat frontal cortex at 7 MBq, iv after 45 mins; conditions: in vivo, 0.75 h

## O=C(N(CCN1CCN(c2ccccc2O)CC1)c1ccccn1)C12C3C4C1C1C2C3C41[123I] (centres undefined)
[1]
  Drug uptake: 0.22 % ID/g
[2]
  Drug uptake: 0.59 % ID/g
[3]
  Drug uptake: 0.23 % ID/g
[4]
  Drug uptake: 0.25 % ID/g
[5]
  Drug uptake: 0.07 % ID/g
[6]
  Ratio: 1.73
[7]
  Drug uptake: 0.09 % ID/g
[8]
  Drug uptake: 0.14 % ID/g
[9]
  Drug uptake: 0.3 % ID/g
[10]
  Drug uptake: 0.13 % ID/g
[11]
  Ratio: 0.93
[12]
  Drug uptake: 0.12 % ID/g
[13]
  Drug uptake: 0.28 % ID/g
[14]
  Ratio: 2.38
[15]
  Drug uptake: 0.34 % ID/g
[16]
  Drug uptake: 0.08 % ID/g
[17]
  Drug uptake: 0.04 % ID/g
[18]
  Drug uptake: 3.12 % ID/g
[19]
  Drug uptake: 0.22 % ID/g
[20]
  Drug uptake: 0.44 % ID/g
[21]
  Drug uptake: 2.08 % ID/g
[22]
  Drug uptake: 0.03 % ID/g
[23]
  Drug uptake: 0.28 %ID
[24]
  Drug uptake: 0.19 % ID/g
[25]
  Drug uptake: 0.2 % ID/g
[26]
  Drug uptake: 0.03 % ID/g
[27]
  Drug uptake: 0.25 %ID
[28]
  Drug uptake: 1.97 % ID/g
[29]
  Drug uptake: 0.04 % ID/g
[30]
  Drug uptake: 2.38 % ID/g
[31]
  Drug uptake: 0.04 % ID/g
[32]
  Ratio: 1.44
[33]
  Drug uptake: 0.05 % ID/g
[34]
  Drug uptake: 5.47 % ID/g
[35]
  Drug uptake: 0.18 % ID/g
[36]
  Drug uptake: 0.37 % ID/g
[37]
  Drug uptake: 0.18 % ID/g
[38]
  Drug uptake: 5.54 % ID/g
[39]
  Drug uptake: 0.11 %ID
